Patent US11464762B2, “Carcinogenesis inhibitor” (NATIONAL CANCER CENTER, priority 2017, dated 2022)

What was measured:
[1] = Evaluation of safety, repeated oral administration to healthy male adults; format: in vivo, human; conditions: oral 400 mg single dose, 17 administrations over seven days, six cases
Experimental: Eight healthy male adults (21 to 24 years age) (consisting of six cases being administered with the test substance and two cases being administered with the placebo) were used as the subjects and the present compound was orally administered repeatedly to evaluate the safety. A test substance (Compound 21) was orally administered in the single dose of 400 mg in such a manner that, on the first and the seventh day of the administration, once-daily in the morning on an empty stomach and, on the second to the sixth days of the administration, thrice-daily on an empty stomach (at 09:00, 14:00 and 19:00) together with 150 mL of water each (17 administrations in total).

CDK4 = experiment: Expression level of cell proliferation-associated factor mRNA (realtime-PCR), CDK4; format: in vivo, mouse; conditions: non-polyp part of small intestine mucosa, Min mice, 1000 ppm in feed, GAPDH-normalised, control group = 1.00, n=3
Experimental: (§1) (1) mRNA Extraction from the Intestinal Polyp Part and Non-Polyp Part, and cDNA Synthesis
(§2) TRIsol (Invitrogen) (500 μL) was added to a polyp part and a non-polyp part of small intestine mucosa of mouse of the control group and the 1000 ppm test substance-administering group scraped in Test Example 1. After 100 μL of chloroform was added thereto and mixed therewith, the mixture was centrifuged (12000 rpm for 2 minutes) and the supernatant liquid was recovered therefrom. The recovered supernatant liquid was added 250 μL of ethanol and RNA was extracted therefrom and purified using a column (QIAGEN).
(§3) After DNAse (Invitrogen) treatment, cDNA was prepared from 1 μg of the total RNA using High-Capacity cDNA Reverse Transcription Kits (Applied Biosystems). […]
(§4) Expression level of mRNA of the cell proliferation-associated factors [c-Myc, CDK4 and cyclin D1] was measured by a realtime-PCR method using the cDNA being synthesized from the total RNA extracted in the above (1). With regard to the polyp part, the mRNA expression level only of c-Myc was measured.
(§5) As to the PCR primers for each of the cell proliferation-associated factors, there were used c-Myc [Forward: […] […] Each of the resulted measured values was divided by the measured value of the glyceraldehyde-3-phosphate dehydrogenase (GAPDH) gene which was an internal standard whereupon the relative values were calculated. […]

[2] = Feed and body weight of Min mice during the administration period; format: in vivo, mouse; conditions: 500 and 1000 ppm in feed for eight weeks versus control group
Experimental: (§6) The experimental animals were randomly classified into a control group, a group to which 500 ppm of a test substance was administered and a group to which 1000 ppm of a test substance was administered. In each group, 10 mice per group were organized in such a manner that average body weight in the group became same. The control group was administered with a basic feed only and each of the 500 ppm test substance-administering group and the 1000 ppm test substance-administering group was administered with a mixed feed of a test substance (Compound 21) in 500 and 1000 ppm concentrations, respectively for eight weeks.

cyclin D1 = experiment: Expression level of cell proliferation-associated factor mRNA (realtime-PCR), cyclin D1; format: in vivo, mouse; conditions: non-polyp part of small intestine mucosa, Min mice, 1000 ppm in feed, GAPDH-normalised, control group = 1.00, n=3
Experimental: as §1, §2, §3, §4, §5

[3] = tested on: intestinal polyps of C57BL/6-Apc^Min/+ mouse (Min mouse); experiment: Evaluation of intestinal polyp formation in Min mice; format: in vivo; conditions: for Number of intestinal polyp, colon / Number of intestinal polyp, small intestine distal segment / Number of intestinal polyp, small intestine middle segment / Number of intestinal polyp, small intestine proximal segment / Number of intestinal polyp, total: mean
Excerpt: (1) Grouping of Experimental Animals and Administration of a Test Substance
As to an experimental animal, there was used a C57BL/6-Apc^Min/+ mouse (Min mouse) which was a familial adenomatosis coli model. The Min mouse is an Apc (adenomatous polyoisis coli) mutant mouse and an increase in polyp numbers is noted therein with time. It has been also known that the Min mouse is occurred with dyslipidemia in a state of highly oxidative stress. 5-week-old male Min mice were bred and acclimatized in a plastic cage (235×325×170 H mm) (six mice in maximum in a cage) in a laboratory where the temperature, the humidity and the brightness/darkness cycle were set at 24±2° C., 55% and 12 hours, respectively. In the meanwhile, they were freely ingested with filtered water and basic feed (MN-76A, CLEA Japan Inc.).
as §6
(2) Measurement of Numbers of Polyps in the Intestinal Tract
The mice in each group were killed under anesthetization at 13 weeks old and, after laparotomy, the intestinal tract was excised and fixed with formalin. Small intestine was divided into proximal segment (the segment in about 4 cm length from pylorus), middle segment and distal segment, then the polyp numbers in the four segments including colon were counted under a stereomicroscope and the mean value in each group was calculated.

c-Myc = experiment: Expression level of cell proliferation-associated factor mRNA (realtime-PCR), c-Myc; format: in vivo, mouse; conditions: Min mice, 1000 ppm in feed, GAPDH-normalised, control group = 1.00, n=3
Experimental: as §1, §2, §3, §4, §5

[4] = tested on: PCNA antibody-positive cells in polyp part of mouse small intestine mucosa; experiment: Cell proliferation ability in polyp part of intestinal mucosa (PCNA immunostaining); format: in vivo; conditions: Min mice, 1000 ppm in feed, n = 14 (control group 71.26)
Experimental: The formalin-fixed slices embedded in paraffin prepared from the polyp part of mouse small intestine mucosa of the control group and of the 1000 ppm test substance-administering group being excised in Test Example 1 were dipped in xylene for five minutes×three times for the purpose of deparaffinization and were dipped in 99.5% alcohol for five minutes×three times to enhance the hydrophilicity followed by dipping into distilled water for 10 minutes. After that, the slices were dipped into a methanol solution containing 0.3% of hydrogen peroxide to conduct a deactivation treatment for the endogenous peroxidase. Further, 1 mL of a 0.3% Triton [Registered trade mark] X-100 solution containing 2% of horse serum (a phosphate-buffered saline (PBS) containing 0.3% of Triton) followed by blocking for 30 minutes.
To the slices was added an anti-mouse proliferating cell nuclear antigen (PCNA) antibody (Calbiochem [Registered trade mark]) diluted to an extent of 100 times and a primary antibody response was conducted overnight at 4° C. […] The ratio of the PCNA antibody-positive cell numbers to the total cell numbers in the microscopic field in each group was also calculated. […]

[5] = 500 ppm in feed for eight weeks
[6] = 500 ppm in feed for eight weeks, n = 9
[7] = 1000 ppm in feed for eight weeks
[8] = 1000 ppm in feed for eight weeks, n = 8

SMILES: CN1C(=O)NC(=O)C1O (stereo not shown) [Compound 21, 5-Hydroxy-1-methylhydantoin]
- Abnormal variation in blood pressure, pulse rate, body temperature, hematological test, blood biochemical test and urinary test [1]: no abnormal variation suspected to be related to the present compound
- Clinical symptoms suspected to be related to the compound [1]: no clinical symptom suspected to be related to the present compound
- Ratio of expression quantity of cell proliferation-associated factor CDK4 (CDK4): 0.47
- Difference in the feed and in the body weight among the groups during the administration period [2]: No significant difference
- Ratio of expression quantity of cell proliferation-associated factor Cyclin D1 (cyclin D1): 0.27
- Decrease of polyp numbers in the middle segment of small intestine as compared with the control group [3, 5]: about 37%
- Decrease of total numbers of polyps as compared with the control group [3, 5]: about 17%
- Number of intestinal polyp, colon [3, 6]: 1.00
- Number of intestinal polyp, small intestine distal segment [3, 6]: 27.00
- Number of intestinal polyp, small intestine middle segment [3, 6]: 7.33
- Number of intestinal polyp, small intestine proximal segment [3, 6]: 3.89
- Number of intestinal polyp, total [3, 6]: 39.22
- Decrease of polyp numbers in the middle segment of small intestine as compared with the control group [3, 7]: ~29%
- Decrease of total numbers of polyps as compared with the control group [3, 7]: about 17%
- Number of intestinal polyp, colon [3, 8]: 0.38
- Number of intestinal polyp, small intestine distal segment [3, 8]: 25.63
- Number of intestinal polyp, small intestine middle segment [3, 8]: 8.25
- Number of intestinal polyp, small intestine proximal segment [3, 8]: 5.13
- Number of intestinal polyp, total [3, 8]: 39.38
- Ratio of expression quantity of cell proliferation-associated factor c-Myc (c-Myc; non-polyp part of small intestine mucosa): 0.25
- Ratio of expression quantity of cell proliferation-associated factor c-Myc (c-Myc; polyp part of small intestine mucosa): 0.39
- Ratio of the PCNA antibody-positive cell numbers to the total cell numbers [4]: 58.40%
